Patent US20230078764A1 (Yumanity Therapeutics, Inc., priority 2019, published 2023)
pIC50: −log10 of the molar value. Like-named read-outs stand apart in the source and are kept apart here.

Experiments:
human SCD1 = molecular target: T1, human SCD1 (Homo sapiens, UniProt O00767); experiment: Growth inhibition of yeast strain expressing human SCD1 as sole desaturase (OLE1 deleted), OD600 readout; assay type: cell-based
T1 construct: expressed in transfected cells; host or cells: yeast strain with OLE1 deleted, plasmid-borne human SCD1 (selected in SD-Ura)
T1 sequence (O00767 1-359): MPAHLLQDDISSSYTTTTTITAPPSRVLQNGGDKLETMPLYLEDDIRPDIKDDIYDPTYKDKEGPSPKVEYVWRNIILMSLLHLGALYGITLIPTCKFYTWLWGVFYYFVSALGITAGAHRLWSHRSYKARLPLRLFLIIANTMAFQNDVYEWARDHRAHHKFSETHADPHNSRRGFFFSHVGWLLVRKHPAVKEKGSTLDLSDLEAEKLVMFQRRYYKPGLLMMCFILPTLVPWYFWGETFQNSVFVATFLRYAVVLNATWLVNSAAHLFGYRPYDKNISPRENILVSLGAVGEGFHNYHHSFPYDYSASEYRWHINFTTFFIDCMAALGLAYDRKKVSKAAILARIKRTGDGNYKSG

human SCD5 = molecular target: T2, human SCD5 (Homo sapiens, UniProt Q86SK9); experiment: Growth inhibition of yeast strain expressing human SCD5 as sole desaturase (OLE1 deleted), OD600 readout; assay type: cell-based
T2 construct: expressed in transfected cells; host or cells: yeast strain with OLE1 deleted, plasmid-borne human SCD5 (selected in SD-Ura)
T2 sequence (Q86SK9 1-330): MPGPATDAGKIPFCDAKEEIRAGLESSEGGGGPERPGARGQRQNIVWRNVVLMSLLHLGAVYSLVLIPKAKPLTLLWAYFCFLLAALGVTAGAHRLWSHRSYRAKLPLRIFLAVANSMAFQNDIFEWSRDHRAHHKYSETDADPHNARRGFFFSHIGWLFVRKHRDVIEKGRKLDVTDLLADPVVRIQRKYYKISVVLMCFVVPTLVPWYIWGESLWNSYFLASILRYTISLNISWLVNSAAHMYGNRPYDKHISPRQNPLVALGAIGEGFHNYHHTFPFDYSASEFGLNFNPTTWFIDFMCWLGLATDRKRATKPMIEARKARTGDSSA

[1] = yeast strain expressing human SCD1 as sole desaturase, growth (OD600) after 40 h at 30° C., read-out: SCD1 IC50
[2] = yeast strain expressing human SCD5 as sole desaturase, growth (OD600) after 40 h at 30° C., read-out: SCD5 IC50

| SMILES | pIC50 (human SCD1; [1]) | pIC50 (human SCD5; [2]) | pIC50 (human SCD1; SCD1 IC50) | pIC50 (human SCD5; SCD5 IC50) |
| --- | --- | --- | --- | --- |
| Cc1cc(C(=O)Nc2ccc(Cc3cc(F)cc(F)c3)cn2)cnc1C#N [Compound 616] | 6.28 | 8.00 |  |  |
| CN1N=C(C(=O)Nc2ncc(C(=O)c3cccc(F)c3)s2)CCC1=O [Compound 413] | < 4.35 | < 4.35 |  |  |
| Cn1nc(C(=O)NC2CCC(Oc3cccc(Cl)c3)CC2)ccc1=O (centres unmarked) [Compound 369] | < 4.35 | 4.85 |  |  |
| O=C(Nc1ccc(Cc2cccc(F)c2)cn1)c1ccc2nncn2c1 [Compound 151, N-(5-(3-fluorobenzyl)pyridin-2-yl)-[1,2,4]triazolo[4,3-a]pyridine-6-carboxamide] | 5.87 | 7.10 |  |  |
| CN1N=C(C(=O)Nc2ccc(Cc3cncc(Cl)c3)cn2)CCC1=O [Compound 274] | < 4.35 | 6.12 |  |  |
| O=C(Nc1ccc(Cc2ccc(F)c(F)c2)cn1)c1ncc(CO)cn1 [Compound 603] | 8.00 | 8.00 |  |  |
| N#Cc1cc(Cl)cc(Cc2ccc(NC(=O)c3cnc(C#N)cn3)nc2)c1 [Compound 677] | < 4.35 | 7.10 |  |  |
| CCn1ccc(C(=O)Nc2ccc(Cc3cc(F)cc(F)c3)cn2)n1 [Compound 97, N-(5-(3,5-difluorobenzyl)pyridin-2-yl)-1-ethyl-1H-pyrazole-3-carboxamide] | 5.96 | 7.70 |  |  |
| O=C(Nc1ccc(Cc2cccc(Cl)c2)cn1)c1cnc(CO)c(F)c1 [Compound 290] | 8.00 | 8.00 |  |  |
| Cc1cc(C(=O)Nc2ccc(Cc3cc(F)cc(F)c3)cn2)cn(C)c1=O [Compound 676] | 7.08 | 8.00 |  |  |
| CN1N=C(C(=O)Nc2ccc(Cc3cc(Cl)cc(Cl)c3)cn2)CCC1=O [Example 31] | 5.20 | 7.30 |  |  |
| CC(O)c1ccc(C(=O)Nc2ccc(Cc3ccc(F)c(F)c3)cn2)nc1 (centres unmarked) [Compound 511] | 6.84 | 6.72 |  |  |
| CN1N=C(C(=O)Nc2ncc(Cc3ccc(Cl)cc3)s2)CCC1=O [Compound 213, N-(5-(4-chlorobenzyl)thiazol-2-yl)-1-methyl-6-oxo-1,4,5,6-tetrahydropyridazine-3-carboxamide] | 6.41 | 6.42 |  |  |
| O=C(Nc1ccc(Cc2cccc(Cl)c2)cn1)c1cnc(CO)nc1 [Compound 494] | 8.00 | 8.00 |  |  |
| CCn1cc(C(=O)Nc2ccc(Oc3cccc(Cl)c3)cn2)ccc1=O [Compound 165, N-[5-(3-chlorophenoxy)pyridin-2-yl]-1-ethyl-6-oxo-1,6-dihydropyridine-3-carboxamide] | 4.85 | 5.48 |  |  |
| Cc1cc(C(=O)Nc2ccc(Cc3cc(F)cc(C#N)c3)cn2)cnc1C#N [Compound 663] | < 4.35 | 7.41 |  |  |
| Cc1cc(C(=O)Nc2ccc(Cc3cc(F)cc(F)c3)cn2)cnc1Cl [Compound 619] | 4.55 | 6.82 |  |  |

| SMILES | pIC50 (human SCD1; [1]) | pIC50 (human SCD5; [2]) | pIC50 (human SCD1; SCD1 IC50) | pIC50 (human SCD5; SCD5 IC50) |
| --- | --- | --- | --- | --- |
| O=C(Nc1ccc(Cc2cccc(Cl)c2)cn1)c1ccc(CO)cn1 [Compound 137, N-(5-(3-chlorobenzyl)pyridin-2-yl)-5-(hydroxymethyl)picolinamide] |  |  | 8.00 | 8.00 |
| CN1N=C(C(=O)Nc2ncc(Cc3ccc4ccccc4n3)s2)CCC1=O [Compound 390] | < 4.35 | < 4.35 |  |  |
| CN1N=C(C(=O)Nc2ncc(Cc3cccc(Cl)c3)s2)CCC1=O [Compound 207, N-(5-(3-chlorobenzyl)thiazol-2-yl)-1-methyl-6-oxo-1,4,5,6-tetrahydropyridazine-3-carboxamide] | 7.05 | 8.00 |  |  |
| COCc1ccc(C(=O)Nc2ccc(Cc3cccc(Cl)c3)cn2)cn1 [Compound 136, N-(5-(3-chlorobenzyl)pyridin-2-yl)-6-(methoxymethyl)nicotinamide] | 5.90 | 6.31 |  |  |
| Cn1cc(C(=O)Nc2ccc(Oc3cc(F)cc(Cl)c3)cn2)ccc1=O [Compound 589] | 5.64 | 6.82 |  |  |
| CN1N=C(C(=O)N(C)c2ncc(Cc3cccc(F)c3)s2)CCC1=O [Compound 221] | < 4.35 | < 4.35 |  |  |
| CN1N=C(C(=O)Nc2ccc(/C=C/c3cccc(Cl)c3)nn2)CCC1=O [Compound 288] | < 4.35 | 5.60 |  |  |
| Cn1ccc(C(=O)Nc2ccc(Cc3cc(F)ccc3F)cn2)cc1=O [Compound 630] | 5.96 | 6.49 |  |  |
| Cn1cc(C(=O)Nc2ccc(Cc3cc(F)cc(F)c3)cn2)ncc1=O [Compound 672] | 6.30 | 6.38 |  |  |
| Cc1ccnc(Cc2ccc(NC(=O)C3=NN(C)C(=O)CC3)nc2)c1 [Compound 469] | < 4.35 | < 4.35 |  |  |
| Cc1cnc(C(=O)Nc2ccc(Cc3ccc(F)c(Cl)c3)cn2)cn1 [Compound 138, N-(5-(3-chloro-4-fluorobenzyl)pyridin-2-yl)-5-methylpyrazine-2-carboxamide] | 6.26 | 7.10 |  |  |
| COc1nccc(C(=O)Nc2ccc(Cc3ccc(F)c(F)c3)cn2)n1 [Compound 486] | 5.11 | 6.96 |  |  |
| COc1cc(Cc2ccc(NC(=O)c3cnc(Cl)cn3)nc2)ccc1F [Compound 634] | < 4.35 | 6.55 |  |  |
| Cn1nc(C(=O)Nc2ccc(Cc3ccc(F)c(F)c3)cn2)ccc1=O [Example 35, N-(5-(3,4-difluorobenzyl)pyridin-2-yl)-1-methyl-6-oxo-1,6-dihydropyridazine-3-carboxamide] | < 4.35 | 6.52 |  |  |
| CN1N=C(C(=O)Nc2ncc(Cc3ccccc3Cl)s2)CCC1=O [Compound 230, N-(5-(2-chlorobenzyl)thiazol-2-yl)-1-methyl-6-oxo-1,4,5,6-tetrahydropyridazine-3-carboxamide] | 5.54 | 5.42 |  |  |
| CC(C)n1nc(C(=O)Nc2ccc(Cc3cccc(Cl)c3)cn2)ccc1=O [Compound 73, N-(5-(3-chlorobenzyl)pyridin-2-yl)-1-isopropyl-6-oxo-1,6-dihydropyridazine-3-carboxamide] | 5.09 | 6.77 |  |  |

More lines, main results first:

| pIC50 (human SCD1; [1]) | pIC50 (human SCD5; [2]) | SMILES | pIC50 (human SCD1; SCD1 IC50) | pIC50 (human SCD5; SCD5 IC50) |
| --- | --- | --- | --- | --- |
| 5.77 | 6.32 | CCn1cccc(C(=O)Nc2ccc(Cc3cccc(F)c3)cn2)c1=O [Compound 332] |  |  |
| 6.07 | 6.85 | O=C(Nc1ccc(Cc2cccc(F)c2)cn1)c1ccc(=O)n(C(F)F)c1 [Compound 287] |  |  |
| 6.92 | 7.57 | O=C(Nc1ccc(Cc2cccc(F)c2)cn1)c1cncc(CO)c1 [Compound 481] |  |  |
| < 4.35 | 6.36 | CC1CC(C(=O)Nc2ccc(Cc3cccc(F)c3)cn2)=NN(C)C1=O (centres unmarked) [Compound 118, N-(5-(3-fluorobenzyl)pyridin-2-yl)-1,5-dimethyl-6-oxo-1,4,5,6-tetrahydropyridazine-3-carboxamide] |  |  |
| 5.76 | 7.70 | CCn1ccc(C(=O)Nc2ccc(Cc3cccc(Cl)c3)cn2)n1 [Compound 100, N-(5-(3-chlorobenzyl)pyridin-2-yl)-1-ethyl-1H-pyrazole-3-carboxamide] |  |  |
| 5.36 | 6.72 | CN1N=C(C(=O)Nc2ccc(Cc3ccc(Cl)c(Cl)c3)nn2)CCC1=O [Compound 188, N-(6-(3,4-dichlorobenzyl)pyridazin-3-yl)-1-methyl-6-oxo-1,4,5,6-tetrahydropyridazine-3-carboxamide] |  |  |
| < 4.35 | < 4.35 | CS(=O)(=O)c1ccc(C(=O)Nc2ccc(Cc3cccc(F)c3)cn2)cc1 [Compound 423] |  |  |
| 5.19 | 5.80 | CN1N=C(C(=O)Nc2ccc(CCc3cccc(Cl)c3)nn2)CCC1=O [Compound 246] |  |  |
| < 4.35 | 4.48 | CN1N=C(NC(=O)c2ccc(Cc3cccc(Cl)c3)nn2)CCC1=O [Compound 190, 6-(3-chlorobenzyl)-N-(1-methyl-6-oxo-1,4,5,6-tetrahydropyridazin-3-yl)pyridazine-3-carboxamide] |  |  |
| 4.81 | 6.16 | Cn1ccc(C(=O)Nc2ccc(Cc3cccc(F)c3)cn2)nc1=O [Compound 335] |  |  |
| < 4.35 | 5.57 | O=C(Nc1ccc(Nc2cccc(F)c2)cn1)c1ccc(=O)n(C2CC2)n1 [Compound 304] |  |  |
| 4.74 | 6.21 | CN1N=C(NC(=O)c2ccc(Cc3cccc(F)c3)cn2)CCC1=O [Compound 90, 5-(3-Fluorobenzyl)-N-(1-methyl-6-oxo-1,4,5,6-tetrahydropyridazin-3-yl)picolinamide] |  |  |
| < 4.35 | < 4.35 | O=C(Nc1ccc(Cc2cccc(F)c2)nn1)c1ccc(=O)n(CC2CC2)n1 [Compound 376] |  |  |
| < 4.35 | < 4.35 | CN1N=C(C(=O)Nc2ncc(Cc3cccc(F)c3)o2)CCC1=O [Compound 399] |  |  |
| 4.49 | 5.18 | Cn1nc(C(=O)Nc2ccc(CCOc3cccc(F)c3)cn2)ccc1=O [Compound 360] |  |  |
| < 4.35 | < 4.35 | Cn1nc(C(=O)Nc2nc(C(N)=O)c(Cc3cccc(F)c3)s2)ccc1=O [Compound 430] |  |  |
